Values after ≈ are worked out from the molar mass of the structure shown. Read-outs that look alike come from different tables or passages of the source.

Data set [1] in a line: HTChem stab assay (chemical stability in buffer pH2, pH4 and pH7 vs DMSO reference). It counts as physicochemical. The conditions noted are these: 72 h, 50 µM; for Chemical stability data, Buffer pH2: pH 2; for Chemical stability data, Buffer pH4: pH 4; for Chemical stability data, Buffer pH7: pH 7. The protocol:
HTChem stab assay was used to assess the chemical stability of the compounds. 72 h stirring at rt in a buffer pH2, pH4 and pH7 vs a reference DMSO solution. HTChem stab assay is based on the handbook of Pharmaceutical Stress Testing, Predicting Drug Degradation, second edition, authors Baertschi, Alsante, Reed ISBN 978-143980179-6.
Compounds were plated (1 μl 10 mM DMSO stock in 96 well plate (DMSO control+3 pH conditions), one plate per condition).
200 μL of respectively DMSO, Buffer/DMSO mix pH2, Buffer/DMSO mix pH4 and Buffer/DMSO mix pH7 was added.
After 72 h shaking (300 rpm) at room temperature the samples were analysed by LC/UV/MS. Chromatograms of samples (stability conditions) were compared with the chromatograms of control sample (DMSO). Extra peaks were flagged and identified by mass spectrometry. Sample purity (reference included) were reported.
• pH3 buffer: For 11; weigh 4.14 g NaH2PO4·H2O, add 600 ml H2O, add H3PO4 to pH3, add H2O to 1000 ml. Filter over 0.2 μm and store at 4° C. Expires after 30 days. • pH6 buffer: For 1 l; weigh 4.14 g NaH2PO4·H2O, add 600 ml H2O, add 1N NaOH to pH6, add H2O to 1000 ml. Filter over […] and store at 4° C. Expires after 30 days.
• pH2 Buffer/DMSO (StabSolvent): mix 2 parts of HCl 0.1N with 1 part of DMSO • pH4 Buffer/DMSO (StabSolvent): mix 2 parts of buffer pH3 with 1 part of DMSO • pH7 Buffer/DMSO (StabSolvent): mix 2 parts of buffer pH6 with 1 part of DMSO measure pH prior to use.
Instrument: Acquity UPLC; Column: Acquity HSS T3, 50 mm length×2.1 mm i.d., 1.8 μm particle size. Detectors: PDA (250-350 nm) and SQD2 (90-1500m/z). Mobile phase A: 0.1% Formic acid in water; Mobile phase B: 0.1% Formic acid in Acetonitrile.
Injection volume: 5 μL, flow rate 0.6 mL/min.
Data processing including peak integration and identification was done with Waters OpenLynx software.

Data set [2] relates to Mycobacterium tuberculosis strain H37Rv. As to the kind of experiment: Test 2: MIC determination against M. tuberculosis, resazurin fluorescence. The conditions noted are these: Mycobacterium tuberculosis, H37RV, Test 2, M. tuberculosis H37Rv; for MIC90: read-out: Bacterial activity MIC90; for IC50: read-out: Bacterial activity pMIC50 (converted). The class given is cell-based. (In general: Alamar Blue is a resazurin reagent that responds to reducing activity.)

A short description of data set [3]: Metabolic stability in liver microsomes (intrinsic clearance). The conditions noted are these: microsomes. The class given is in vitro ADME. The method, boiled down:
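Compound (typically 1 μM) incubated at 37° C with liver microsomes (0.5 mg/ml protein) of selected species, 1 mM NADPH, 1 mM MgCl2, 0.1 M phosphate pH 7.4, sampled 0–60 min. Parent remaining measured by LC-MS/MS; t1/2 from log-linear slope, then Clint in μl/min/mg protein.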
In general terms: Microsomes from liver hold many membrane-bound enzymes, among them those of drug oxidation.

Data set [4] deals with Salmonella typhimurium Ames II Mixed Strains (TA7001-TA7006) and TA98. In words: Genotoxicity assay (AmesIIb mutagenicity test). Also: key: an AmesIIb score of 1 shows no genotoxicity signals. The class given is cell-based. The settings on record: Salmonella typhimurium. The essentials:
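Ames II fluctuation-type reverse mutation test using Ames II Mixed Strains (equimolar TA7001–TA7006, six base-pair substitutions) plus TA98 (frameshift). Run with and without mammalian metabolic activation across varying compound concentrations; His+ revertants selected on histidine-free medium.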

Setting [5] is: mouse, pH 7.4, Metabolic Stability Half life (mouse, min.).
Where [6] appears, read: mouse, pH 7.4, mouse liver microsomes, read-out: Metabolic Stability (liver microsome intrinsic clearance) Clearance (mouse, μl/min./mg protein).
[7] abbreviates: human, pH 7.4, Metabolic Stability Half life (human, min.).
[8] abbreviates: human, pH 7.4, human liver microsomes, read-out: Metabolic Stability (liver microsome intrinsic clearance) Clearance (human, μl/min./mg protein).

Broadly, the MIC90 is the lowest concentration that inhibits either 90% of growth or 90% of the strains tested, depending on the study. As a reminder, the half-life is the time needed for the level to fall by half in the phase considered. High values mean slow loss, low ones fast loss. Turning to `CCc1nc2ncc(C)cn2c1C(=O)NCc1ccc(-c2nc3n(n2)CCC(C)C3)cc1` (stereo not shown) [Compound 4ab], in data set [1], the “Chemical stability data, Vehicle DMSO” value is 98%; the “Chemical stability data, Buffer pH2” value is given as 98%; the “Chemical stability data, Buffer pH4” value is reported as 98%; the “Chemical stability data, Buffer pH7” value was 98%. In data set [2], the MIC90 worked out at 0.017 µM (≈ 7.3 ng/mL) and the IC50 was 7050 pM. For the same molecule, the half-life at 1 µM in data set [3] (setting [5]) was 2.75 h. Further, the microsomal CLint at 1 µM in data set [3] (setting [6]) came to 8.38 µL/min/mg. For the same molecule, the “GeneTox AmesIIb Score” value in data set [4] was determined as 1.

With `CCc1nc2nc(C)ccn2c1C(=O)NCc1ccc(-c2nc3n(n2)CCC(C(F)(F)F)C3)cc1` (stereo not shown) [Compound 5ab], in data set [1], the “Chemical stability data, Vehicle DMSO” value came to 94%; the “Chemical stability data, Buffer pH2” value amounted to 95%; the “Chemical stability data, Buffer pH4” value was found to be 96%; the “Chemical stability data, Buffer pH7” value stood at 96%. In data set [2], the MIC90 worked out at 0.023 µM (≈ 11.1 ng/mL) and the IC50 was 8280 pM. In data set [3] (setting [5]), this molecule gave a half-life at 1 µM of over 3 h. In data set [3] (setting [6]), the microsomal CLint at 1 µM is under 7.7 µL/min/mg. Besides, the “GeneTox AmesIIb Score” value in data set [4] stood at 1.

Regarding `CCc1nc2ncc(OC)cn2c1C(=O)NCc1ccc(-c2nc3n(n2)CCC(C(F)(F)F)C3)cc1` (stereo not shown) [Compound 6ab], in data set [1], the “Chemical stability data, Vehicle DMSO” value came to 93%; the “Chemical stability data, Buffer pH2” value is given as 100%; the “Chemical stability data, Buffer pH4” value came out at 100%; the “Chemical stability data, Buffer pH7” value came to 100%. For the same molecule, in data set [2], the MIC90 was determined as 0.007 µM (≈ 3.5 ng/mL) and the IC50 was 3480 pM. The same molecule displayed a half-life at 1 µM in data set [3] (setting [5]) of 1.62 h. Besides, the microsomal CLint at 1 µM in data set [3] (setting [6]) was 14.2 µL/min/mg. For the same molecule, in data set [4], the “GeneTox AmesIIb Score” value worked out at 1.

For the molecule `CCc1nc2nc(C)c(C)cn2c1C(=O)NCc1ccc(-c2nc3n(n2)CCC(C(F)(F)F)C3)cc1` (stereo not shown) [Compound 9ab], in data set [1], the “Chemical stability data, Vehicle DMSO” value is listed as 100%; the “Chemical stability data, Buffer pH2” value was found to be 100%; the “Chemical stability data, Buffer pH4” value came out at 100%; the “Chemical stability data, Buffer pH7” value was 100%. In addition, in data set [2], the MIC90 turned out to be 0.011 µM (≈ 5.47 ng/mL) and the IC50 is 4940 pM. The same molecule gave a half-life at 1 µM in data set [3] (setting [5]) of 1.66 h. In addition, the microsomal CLint at 1 µM in data set [3] (setting [6]) is 13.9 µL/min/mg. Besides, in data set [4], the “GeneTox AmesIIb Score” value is recorded as 1.

As for `CCc1nc2ncc(Cl)cn2c1C(=O)NCc1ccc(-c2nc3n(n2)CCC(C(F)(F)F)C3)cc1` (stereo not shown) [Compound 10ab], in data set [1], the “Chemical stability data, Vehicle DMSO” value is 90%; the “Chemical stability data, Buffer pH2” value was 72%; the “Chemical stability data, Buffer pH4” value stood at 64%; the “Chemical stability data, Buffer pH7” value was determined as 90%. In addition, in data set [2], the MIC90 was determined as 0.016 µM (≈ 8.06 ng/mL) and the IC50 is 5500 pM. This molecule came in with a half-life at 1 µM in data set [3] (setting [5]) of over 3 h. For the same molecule, the microsomal CLint at 1 µM in data set [3] (setting [6]) was under 7.7 µL/min/mg. Also, the “GeneTox AmesIIb Score” value in data set [4] was found to be 1.

`CCc1nc2nc(N)c(C)cn2c1C(=O)NCc1ccc(-c2nc3n(n2)CCC(C(F)(F)F)C3)cc1` (stereo not shown) [Compound 12ab]: in data set [1], the “Chemical stability data, Vehicle DMSO” value amounted to 99%; the “Chemical stability data, Buffer pH2” value amounted to 100%; the “Chemical stability data, Buffer pH4” value is reported as 100%; the “Chemical stability data, Buffer pH7” value is recorded as 100%. For the same molecule, in data set [2], the MIC90 was determined as 0.064 µM (≈ 31.9 ng/mL) and the IC50 was 23400 pM. Further, in data set [3] (setting [7]), the half-life at 1 µM is over 3 h. Moreover, in data set [3] (setting [8]), the microsomal CLint at 1 µM was under 7.7 µL/min/mg. The molecule also registered a half-life at 1 µM in data set [3] (setting [5]) of over 3 h. Also, the microsomal CLint at 1 µM in data set [3] (setting [6]) was under 7.7 µL/min/mg. For the same molecule, in data set [4], the “GeneTox AmesIIb Score” value amounted to 1.

As for `CCc1nc2ncc(C)cn2c1C(=O)NCc1ccc(-c2cc3n(n2)CCC(C(F)(F)F)C3)cc1` (stereo not shown) [Compound 20ab], in data set [1], the “Chemical stability data, Vehicle DMSO” value is 100%; the “Chemical stability data, Buffer pH2” value came out at 100%; the “Chemical stability data, Buffer pH4” value turned out to be 100%; the “Chemical stability data, Buffer pH7” value is 100%. Besides, in data set [2], the MIC90 is 0.003 µM (≈ 1.45 ng/mL) and the IC50 was 931 pM. The half-life at 1 µM in data set [3] (setting [7]) amounted to 0.637 h. In addition, the microsomal CLint at 1 µM in data set [3] (setting [8]) came to 36.3 µL/min/mg. In addition, the half-life at 1 µM in data set [3] (setting [5]) amounted to 1.08 h. The microsomal CLint at 1 µM in data set [3] (setting [6]) came out at 21.3 µL/min/mg. In addition, the “GeneTox AmesIIb Score” value in data set [4] is on record as 1.

Source of the values: US20250034171A1, “IMIDAZOPYRIDINE AMIDES AND RELATED COMPOUNDS FOR USE IN THE TREATMENT OF BACTERIAL INFECTIONS” (priority 2021, published 2025).
